Here are results for 16 compounds from patent US9371331B2, “Modulators of methyl modifying enzymes, compositions and uses thereof” (Constellation Pharmaceuticals, Inc., priority 2012, dated 2016).

The test system of experiment [1] is H3K27me3 mark in HeLa cells. The experiment in a line: H3K27me3 MSD Hela Assay. It is filed as cell-based. The settings on record: Homo sapiens, read-out: H3K27me3_MSD_HeLa_ (EC50). The procedure: Trypsinized HeLa cells were counted and diluted in 10% DMEM (Life Technologies, Cat. #10569) to 5000 cells/75 μL. Seventy-five […] of cells were place in each well of a 96-well flat-bottomed plate and incubated at 37° C. for 4 hours. Twenty-five μL of test compound (at various concentrations) was added to the cells and incubation continued at 37° C. for 96 hours. Media was then removed and the cells rinsed once with ice cold PBS. Forty μL of ice-cold MSD Buffer AT (10 mM HEPES, pH 7.9, 5 mM MgCl2, 0.25M sucrose, Benzonase (1:10000), 1% Triton X-100 supplemented with fresh 1× Protease Inhibitor cocktail and 1 mM 4-(2-Aminoethyl)benzenesulfonyl fluoride hydrochloride (AEBSF)) was added to each well and the plates placed on ice for 30 minutes. Ten μL of 5M NaCl was then added to each well and incubation on ice continued for another 15 minutes. The material in each well was suspended pipetting up and down and then transferred to a new 96 well plate. The emptied wells were rinsed with 150 uL ice-cold 20 mM Tris pH 7.5, 1 mM EDTA, 1 mM EGTA, supplemented with fresh 1× Protease Inhibitor cocktail and 1 mM AEBSF (“NO salt NO detergent buffer) and transferred to the respective wells in the new plate. Three hundred μL of NO Salt NO detergent buffer was then added to each well of lysates and the plates frozen at −80° C.
On the same day, an appropriate number of MSD standard bind 96-well plates were coated with 30 μL/well of total H3 capture antibody (Millipore. Cat #MAB3422) at 1 μg/mL concentration in PBS. The antibody solution was evenly distributed first by tapping gently on the sides of the plates and then by shaking the plates for a few minutes at 1000 rpm. Antibody coated plates were stored at 4° C. overnight.
The next day the lysates are thawed to RT. The antibody coated MSD plates are washed 3× with TBS-T (Tris-buffered saline (Fisher Scientific, Cat #BP2471-1)+0.2% Tween-20). One-hundred fifty μL of 5% Blocker A in TBS-T is added to each well. The wells are covered and shaken on a shaker at RT for one hour. The Blocker A step is repeated a second time. After removing the blocker, 25 μL of cell lysate is transferred into each antibody coated well. The plates are shaken for 2 hours at RT, the lysate removed and the plates again washed with Blocker A in TBS-T. Twenty-five μL of appropriate freshly prepared antibody mix (including both primary and secondary antibodies) is added to each well and the plates shaken for 1 hour at RT.
Both H3 antibodies were obtained from Cell Signalling (Cat #s 4499 and 9733). The goat anti-rabbit antibody was obtained from Meso-Scale Discovery (Cat #R32AB-1).
The antibody mix was then removed and the wells washed with Blocker A. One hundred-fifty μL of freshly prepared 1×MSD Read Buffer (Meso-Scale Discovery; Cat #R927C-2) was then added to each well and the plates read on a MSD Sector 2400 Plate Reader.
Data was analyzed using Assay Assistant (Constellation Pharmaceuticals In-house product) and Activity Base (IDBS Ltd, Surrey, UK) template. Data files were imported to Assay Assistant and assay conditions were specified. A unique Analysis ID was created and the data files exported to Activity Base. An analysis template was created on Activity Base to measure dose-dependent inhibition of H3K27me3 mark and cell viability respectively. Readout of DMSO wells were used to normalize the data. Resulting curves were fitted using Activity base software Model 205 (IDBS Ltd. Surrey, UK). The data was checked for quality, validated and integrated in excel format using SARview (IDBS Ltd, Surrey, UK).

A further experiment deals with Y641N EZH2 (Homo sapiens, UniProt Q15910, Y641N). The experiment in a line: Y641N EZH2 assay: as EZH2 assay, with reconstituted H3K27Me2 oligonucleosomes as substrate. It is filed as biochemical.
Another experiment concerns the target EZH2 (rPRC2) (Homo sapiens, UniProt Q15910). Kind of experiment: EZH2 assay: rPRC2, biotinylated oligonucleosomes, 3H SAM methyl transfer (FlashPlate scintillation). It is filed as biochemical. To be noted: biotinylated oligonucleosome substrate.
Where [2] appears, read: Y641N EZH2 IC50, Y641N mutant EZH2, H3K27Me2 oligonucleosome substrate.
Setting [3] is: EZH2 IC50, wild-type EZH2 (rPRC2).
The mark [4] stands for this setting: Y641N mutant EZH2, H3K27Me2 oligonucleosome substrate, read-out: Y641N EZH2 IC50.
Where [5] appears, read: wild-type EZH2 (rPRC2), read-out: EZH2 IC50.

Where two headings read alike, the source gives them in different places.

Sequence of EZH2 (rPRC2) (Q15910 whole entry): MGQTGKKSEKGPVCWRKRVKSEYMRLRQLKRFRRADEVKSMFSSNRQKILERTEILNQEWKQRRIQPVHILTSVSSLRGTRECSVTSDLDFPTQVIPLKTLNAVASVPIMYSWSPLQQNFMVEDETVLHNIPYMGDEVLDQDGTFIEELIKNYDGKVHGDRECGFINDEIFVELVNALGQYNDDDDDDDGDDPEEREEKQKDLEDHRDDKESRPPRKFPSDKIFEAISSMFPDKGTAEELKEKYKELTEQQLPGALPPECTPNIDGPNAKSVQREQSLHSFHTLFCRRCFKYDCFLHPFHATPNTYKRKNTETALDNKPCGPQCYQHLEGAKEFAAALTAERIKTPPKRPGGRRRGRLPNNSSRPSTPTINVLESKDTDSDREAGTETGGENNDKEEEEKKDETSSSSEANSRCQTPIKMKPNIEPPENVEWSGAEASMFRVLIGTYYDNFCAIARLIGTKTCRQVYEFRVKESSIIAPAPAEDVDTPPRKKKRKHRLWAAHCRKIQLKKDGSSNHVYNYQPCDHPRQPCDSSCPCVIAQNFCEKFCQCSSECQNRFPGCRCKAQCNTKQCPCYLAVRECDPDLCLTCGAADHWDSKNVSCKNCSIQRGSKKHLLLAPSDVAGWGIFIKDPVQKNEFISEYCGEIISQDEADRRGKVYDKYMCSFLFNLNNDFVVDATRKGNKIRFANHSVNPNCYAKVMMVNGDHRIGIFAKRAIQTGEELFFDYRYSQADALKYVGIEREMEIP
Sequence of EZH2 (rPRC2) (O75530 whole entry partner): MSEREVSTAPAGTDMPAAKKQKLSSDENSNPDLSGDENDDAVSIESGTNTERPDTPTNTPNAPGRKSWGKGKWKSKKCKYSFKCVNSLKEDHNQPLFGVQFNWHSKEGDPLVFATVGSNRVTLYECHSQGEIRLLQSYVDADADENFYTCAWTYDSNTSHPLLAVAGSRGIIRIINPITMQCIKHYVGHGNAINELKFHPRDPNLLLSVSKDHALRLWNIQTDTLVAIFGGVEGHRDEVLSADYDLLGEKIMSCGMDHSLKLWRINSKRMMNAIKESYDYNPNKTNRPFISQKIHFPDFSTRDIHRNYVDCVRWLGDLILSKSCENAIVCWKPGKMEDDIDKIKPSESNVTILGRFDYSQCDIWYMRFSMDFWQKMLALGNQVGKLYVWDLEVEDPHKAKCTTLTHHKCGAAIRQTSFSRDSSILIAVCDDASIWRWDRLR
Sequence of EZH2 (rPRC2) (Q15022 whole entry partner): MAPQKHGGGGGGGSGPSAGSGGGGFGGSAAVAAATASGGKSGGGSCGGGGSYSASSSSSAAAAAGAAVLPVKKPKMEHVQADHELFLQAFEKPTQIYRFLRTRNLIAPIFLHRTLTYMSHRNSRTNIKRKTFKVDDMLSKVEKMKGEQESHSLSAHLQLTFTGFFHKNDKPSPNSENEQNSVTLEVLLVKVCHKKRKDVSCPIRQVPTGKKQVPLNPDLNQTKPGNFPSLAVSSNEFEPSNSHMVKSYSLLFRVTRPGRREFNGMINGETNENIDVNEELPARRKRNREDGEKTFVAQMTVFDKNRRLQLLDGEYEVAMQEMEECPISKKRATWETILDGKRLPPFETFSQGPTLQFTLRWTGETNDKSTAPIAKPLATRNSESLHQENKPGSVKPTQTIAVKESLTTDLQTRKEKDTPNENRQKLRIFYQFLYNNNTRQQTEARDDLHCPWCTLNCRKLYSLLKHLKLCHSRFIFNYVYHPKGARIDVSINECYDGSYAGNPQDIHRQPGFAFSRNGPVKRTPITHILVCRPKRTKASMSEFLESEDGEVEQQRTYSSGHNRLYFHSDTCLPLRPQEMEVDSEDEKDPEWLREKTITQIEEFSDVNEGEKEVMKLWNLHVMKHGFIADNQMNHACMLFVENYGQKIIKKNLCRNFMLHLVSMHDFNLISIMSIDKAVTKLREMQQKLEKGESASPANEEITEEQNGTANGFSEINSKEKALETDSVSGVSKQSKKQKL
Sequence of Y641N EZH2 (Q15910 whole entry Y641N): as the sequence (Q15910 whole entry) above, with Y641N counted along it
Sequence of Y641N EZH2 (O75530 whole entry partner): as the sequence (O75530 whole entry partner) above
Sequence of Y641N EZH2 (Q15022 whole entry partner): as the sequence (Q15022 whole entry partner) above

As to `COCC(C)n1c(C)c(C(=O)NCc2c(C)cc(C)[nH]c2=O)c2ccncc21` (racemic) [Compound 240, (±)-N-((4,6-dimethyl-2-oxo-1,2-dihydropyridin-3-yl)methyl)-1-(1-methoxypropan-2-yl)-2-methyl-1H-pyrrolo[2,3-c]pyridine-3-carboxamide], the EC50 in experiment [1] (HeLa, 96 h) is 2000 to 10000 nM. Also, the IC50 against Y641N EZH2 (setting [2]) was 100 to 1000 nM; against EZH2 (rPRC2) (setting [3]) it was under 100 nM.

`COc1cc(C)[nH]c(=O)c1CNC(=O)c1c(C)n(C(C)c2cccc(C(N)=O)c2)c2ncccc12` (racemic) [Compound 242, (±)-1-(1-(3-carbamoylphenyl)ethyl)-N-((4-methoxy-6-methyl-2-oxo-1,2-dihydropyridin-3-yl)methyl)-2-methyl-1H-pyrrolo[2,3-b]pyridine-3-carboxamide]: the concentration giving a half-maximal response (EC50) in experiment [1] (HeLa cells, MSD, 96 hours) lay within 2000 to 10000 nM. The IC50 at Y641N EZH2 (setting [4]) was 100 to 1000 nM; on EZH2 (rPRC2) (setting [5]) it was under 100 nM.

Turning to `COc1cc(C)[nH]c(=O)c1CNC(=O)c1c(C)n(C(C)c2ccccc2)c2cnccc12` (racemic) [Compound 243, (±)-N-((4-methoxy-6-methyl-2-oxo-1,2-dihydropyridin-3-yl)methyl)-2-methyl-1-(1-phenylethyl)-1H-pyrrolo[2,3-c]pyridine-3-carboxamide], the EC50 in experiment [1] (HeLa, 96 h) fell in the range of 2000 to 10000 nM. Also, the IC50 against Y641N EZH2 (setting [2]) is 100 to 1000 nM; at EZH2 (rPRC2) (setting [3]), under 100 nM.

Take `Cc1cc(C)c(CNC(=O)c2c(C)n(C(C)CS(C)(=O)=O)c3ncccc23)c(=O)[nH]1` (racemic) [Compound 250, (±)-N-((4,6-dimethyl-2-oxo-1,2-dihydropyridin-3-yl)methyl)-2-methyl-1-(1-(methylsulfonyl)propan-2-yl)-1H-pyrrolo[2,3-b]pyridine-3-carboxamide]: in experiment [1] (HeLa cells, MSD, 96 hours), the EC50 lay within 2000 to 10000 nM. Besides, the values for the IC50 on Y641N EZH2 (setting [4]) and at EZH2 (rPRC2) (setting [5]) were 100 to 1000 nM and under 100 nM, respectively.

`COCC(C)n1c(C)c(C(=O)NCc2c(C)cc(C)[nH]c2=O)c2scnc21` (racemic) [Compound 254, (±)-N-((4,6-dimethyl-2-oxo-1,2-dihydropyridin-3-yl)methyl)-4-(1-methoxypropan-2-yl)-5-methyl-4H-pyrrolo[2,3-d]thiazole-6-carboxamide]: in experiment [1] (HeLa cells, MSD, 96 hours), the concentration giving a half-maximal response (EC50) lay within 2000 to 10000 nM. For the same compound, the 50% inhibitory concentration (IC50) on Y641N EZH2 (setting [4]) and at EZH2 (rPRC2) (setting [5]) was 100 to 1000 nM in each case.

For `COc1cc(C)[nH]c(=O)c1CNC(=O)c1c(C)n(C(C)C2(C)COC2)c2ccccc12` (racemic) [Compound 291], the EC50 in experiment [1] (HeLa, 96 h) lay in the range of 400 to 2000 nM. For the same compound, the IC50 was 100 to 1000 nM at Y641N EZH2 (setting [2]) and under 100 nM against EZH2 (rPRC2) (setting [3]).

For `Cc1cc(C)c(CNC(=O)c2c(C)n(C(C)c3ccccc3)c3ncccc23)c(=O)[nH]1` (single isomer, unassigned) [Compound 116, N-((4,6-dimethyl-2-oxo-1,2-dihydropyridin-3-yl)methyl)-2-methyl-1-(1-phenylethyl)-1H-pyrrolo[2,3-b]pyridine-3-carboxamide], the EC50 in experiment [1] (HeLa, 96 h) was in the range of 400 to 2000 nM. For the same compound, the IC50 against Y641N EZH2 (setting [2]) was 100 to 1000 nM; against EZH2 (rPRC2) (setting [3]), under 100 nM.

Consider `Cc1cc(C)c(CNC(=O)c2c(C)n(C(C)c3cccc(C#N)c3)c3ccccc23)c(=O)[nH]1` (single isomer, unassigned) [Compound 227, (R or S)-1-(1-(3-cyanophenyl)ethyl)-N-((4,6-dimethyl-2-oxo-1,2-dihydropyridin-3-yl)methyl)-2-methyl-1H-indole-3-carboxamide], for which the EC50 in experiment [1] (HeLa, 96 h) was in the range of 400 to 2000 nM. Also, the 50% inhibitory concentration (IC50) against Y641N EZH2 (setting [2]) and on EZH2 (rPRC2) (setting [3]) was under 100 nM each time.

For `COCC(C)n1c(C)c(C(=O)NCc2c(OC)cc(C)[nH]c2=O)c2cccnc21` (single isomer, unassigned) [Compound 256, (R or S)-N-((4-methoxy-6-methyl-2-oxo-1,2-dihydropyridin-3-yl)methyl)-1-(1-methoxypropan-2-yl)-2-methyl-1H-pyrrolo[2,3-b]pyridine-3-carboxamide], the EC50 in experiment [1] (HeLa, 96 h) lay within 400 to 2000 nM. In addition, the IC50 is 100 to 1000 nM at Y641N EZH2 (setting [2]) and under 100 nM against EZH2 (rPRC2) (setting [3]).

Take `COc1cc(C)[nH]c(=O)c1CNC(=O)c1c(C)n(C(C)c2ccccc2)c2cnccc12` (single isomer, unassigned) [Compound 258, (R or S)-N-((4-methoxy-6-methyl-2-oxo-1,2-dihydropyridin-3-yl)methyl)-2-methyl-1-(1-phenylethyl)-1H-pyrrolo[2,3-c]pyridine-3-carboxamide]: the half-maximal effective concentration (EC50) in experiment [1] (HeLa, 96 h) was in the range of 400 to 2000 nM. Moreover, the IC50 at Y641N EZH2 (setting [2]) and at EZH2 (rPRC2) (setting [3]) was under 100 nM in each case.

In the case of `COc1cc(C)[nH]c(=O)c1CNC(=O)c1c(C)n(C(C)CS(C)(=O)=O)c2ccccc12` (single isomer, unassigned) [Compound 279, (R or S)-N-((4-methoxy-6-methyl-2-oxo-1,2-dihydropyridin-3-yl)methyl)-2-methyl-1-(1-(methylsulfonyl)propan-2-yl)-1H-indole-3-carboxamide], the EC50 in experiment [1] (HeLa, 96 h) lay within 2000 to 10000 nM. Further, the IC50 against Y641N EZH2 (setting [2]) is 100 to 1000 nM; against EZH2 (rPRC2) (setting [3]), under 100 nM.

Consider `COc1cc(C)[nH]c(=O)c1CNC(=O)c1c(C)n([C@H](C)[C@H](OC)C2CC2)c2ncccc12` (single isomer, unassigned) [Compound 286, 1-((1R or S, 2R or S)-1-cyclopropyl-1-methoxypropan-2-yl)-N-((4-methoxy-6-methyl-2-oxo-1,2-dihydropyridin-3-yl)methyl)-2-methyl-1H-pyrrolo[2,3-b]pyridine-3-carboxamide], for which, in experiment [1] (HeLa, 96 h), the EC50 fell in the range of 400 to 2000 nM. In addition, the values for the IC50 on Y641N EZH2 (setting [2]) and at EZH2 (rPRC2) (setting [3]) were 100 to 1000 nM and under 100 nM, respectively.

Regarding `COc1cc(C)[nH]c(=O)c1CNC(=O)c1c(C)n(C(C)C2CCOCC2)c2ncncc12` (single isomer, unassigned) [Compound 319, (R or S)-N-((4-methoxy-6-methyl-2-oxo-1,2-dihydropyridin-3-yl)methyl)-6-methyl-7-(1-(tetrahydro-2H-pyran-4-yl)ethyl)-7H-pyrrolo[2,3-d]pyrimidine-5-carboxamide], the EC50 in experiment [1] (HeLa, 96 h) is under 400 nM. The IC50 at Y641N EZH2 (setting [2]) and against EZH2 (rPRC2) (setting [3]) was under 100 nM each time.

Take `COc1ccc2c(C(=O)NCc3c(OC)cc(C)[nH]c3=O)c(C)n(C(C)C3CCOCC3)c2c1` (single isomer, unassigned) [Compound 321, (R or S)-6-methoxy-N-((4-methoxy-6-methyl-2-oxo-1,2-dihydropyridin-3-yl)methyl)-2-methyl-(1-(tetrahydro-2H-pyran-4-yl)ethyl)-1 H-indole-3-carboxamide]: in experiment [1] (HeLa, 96 h), the EC50 is under 400 nM. Moreover, the IC50 against Y641N EZH2 (setting [2]) and against EZH2 (rPRC2) (setting [3]) was under 100 nM in each case.

Regarding `COc1cc(C)[nH]c(=O)c1CNC(=O)c1c(C)n(C(C)C2CCN(C(=O)OC(C)(C)C)CC2)c2ccccc12` (single isomer, unassigned) [Compound 327, (R or S)-tert-butyl 4-(1-(3-((4-methoxy-6-methyl-2-oxo-1,2-dihydropyridin-3-yl)methylcarbamoyl)-2-methyl-1H-indol-1-yl)ethyl)piperidine-1-carboxylate], the EC50 in experiment [1] (HeLa, 96 h) was under 400 nM. The IC50 on Y641N EZH2 (setting [2]) and at EZH2 (rPRC2) (setting [3]) was under 100 nM in each case.

As for `Cc1cc(C)c(CNC(=O)c2c(C)n([C@H](C)c3ccccc3)c3nc(N4CCOCC4)ncc23)c(O)n1` [Compound 143, (R)—N-((2-hydroxy-4,6-dimethylpyridin-3-yl)methyl)-6-methyl-2-morpholino-7-(1-phenylethyl)-7H-pyrrolo[2,3-d]pyrimidine-5-carboxamide], the EC50 in experiment [1] (HeLa, 96 h) was in the range of 2000 to 10000 nM. The IC50 at Y641N EZH2 (setting [2]) is 1000 to 10000 nM; on EZH2 (rPRC2) (setting [3]), under 100 nM.
